In ChEMBL document CHEMBL1275422, “Cerebrospinal fluid compartmental pharmacokinetics of amikacin in neonates” (Antimicrob Agents Chemother, 2008):

Key:
[1] = Drug uptake in human neonate CSF after 25 hrs by HPLC; type: ADME, organism-based, Cerebrospinal fluid
[2] = Cmin in human neonate serum after 25 hrs by fluorescence polarization immunoassay; type: ADME; settings: read-out: Cmin
[3] = Cmax in human neonate serum after 25 hrs by fluorescence polarization immunoassay; type: ADME, organism-based
[4] = Drug uptake in human adult CSF at 75 mg, im up to 8.5 hrs by HPLC; type: ADME, organism-based, Cerebrospinal fluid; parameters: dose 75 mg, route intramuscular
[5] = Cmax in human neonate at 10 mg/kg, iv by HPLC; type: ADME, organism-based; parameters: dose 10 mg/kg, route intravenous; settings: in vivo

- Cmax [1]: 1080 ng/mL
- concentration at 25 h [2]: 3800 ng/mL
- Cmax [3]: 35700 ng/mL
- Cmax [4]: < 500 ng/mL
- Cmax [5]: < 200 ng/mL
SMILES: NCC[C@H](O)C(=O)N[C@@H]1C[C@H](N)[C@@H](O[C@H]2O[C@H](CN)[C@@H](O)[C@H](O)[C@H]2O)[C@H](O)[C@H]1O[C@H]1O[C@H](CO)[C@@H](O)[C@H](N)[C@H]1O [AMIKACIN]
